In ChEMBL document CHEMBL5465560, “Selectivity Literature for EUbOPEN Chemogenomic Library” (2024):

What was measured:
[1] = target: Dual specificity tyrosine-phosphorylation-regulated kinase 1A (Homo sapiens, UniProt Q13627); assay: Selectivity interaction (KinomeScan (DiscoverX)) EUB0000229b DYRK1A; details: at 10 µM
[2] = target: Serine/threonine-protein kinase PAK 2 (Homo sapiens) (UniProt Q13177); assay: Selectivity interaction (Kinase panel (KiNativ target engagement assay in Jurkat cells)) EUB0001635a PAK2; format: cell-based; details: Selectivity number of off-targets 0.0, Selectivity number of targets 233.0, Source Knowledge https://www.sciencedirect.com/science/article/pii/S2451945619300674?via%3Dihub, at 1 µM
SRSF protein kinase 1 = SRSF protein kinase 1 (Homo sapiens, UniProt Q96SB4); assay: Selectivity interaction (ActivX KiNativ screen (kinase selectivity in THP-1 cell lysates)) EUB0000639a SRPK1; format: subcellular; details: lysate, at 0.01 µM
[3] = target: T1, Serine/threonine-protein kinase ULK1 (Homo sapiens) (UniProt O75385); assay: Selectivity interaction (KinomeScan (DiscoverX)) EUB0000595a ULK1; details: at 10 µM
T1 sequence (whole entry): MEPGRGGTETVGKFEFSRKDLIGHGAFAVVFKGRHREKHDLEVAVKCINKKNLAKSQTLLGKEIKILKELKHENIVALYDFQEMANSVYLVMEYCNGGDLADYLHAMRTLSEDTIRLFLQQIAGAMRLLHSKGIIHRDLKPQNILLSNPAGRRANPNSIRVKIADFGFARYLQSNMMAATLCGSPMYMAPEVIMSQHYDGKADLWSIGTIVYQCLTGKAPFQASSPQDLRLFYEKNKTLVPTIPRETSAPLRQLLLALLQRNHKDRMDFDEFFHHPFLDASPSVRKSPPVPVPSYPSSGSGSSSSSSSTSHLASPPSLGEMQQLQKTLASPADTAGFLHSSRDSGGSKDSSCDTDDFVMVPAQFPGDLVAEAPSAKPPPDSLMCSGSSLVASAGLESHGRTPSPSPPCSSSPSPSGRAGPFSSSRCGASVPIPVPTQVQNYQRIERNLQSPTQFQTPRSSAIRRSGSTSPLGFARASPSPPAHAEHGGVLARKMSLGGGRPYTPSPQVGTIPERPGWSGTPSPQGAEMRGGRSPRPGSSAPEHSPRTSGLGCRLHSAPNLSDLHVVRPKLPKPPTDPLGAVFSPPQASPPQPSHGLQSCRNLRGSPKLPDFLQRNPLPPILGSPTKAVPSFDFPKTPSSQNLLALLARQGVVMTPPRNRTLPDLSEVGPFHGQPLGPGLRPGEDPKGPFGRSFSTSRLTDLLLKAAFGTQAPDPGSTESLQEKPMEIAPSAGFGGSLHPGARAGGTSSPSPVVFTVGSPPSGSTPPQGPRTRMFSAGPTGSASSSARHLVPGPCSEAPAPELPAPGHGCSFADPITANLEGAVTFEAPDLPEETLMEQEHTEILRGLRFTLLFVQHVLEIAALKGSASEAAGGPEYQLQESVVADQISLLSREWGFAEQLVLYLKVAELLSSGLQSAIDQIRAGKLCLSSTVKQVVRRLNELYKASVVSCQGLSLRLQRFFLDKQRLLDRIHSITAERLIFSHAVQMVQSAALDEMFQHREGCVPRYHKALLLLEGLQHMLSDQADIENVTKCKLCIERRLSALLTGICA

[4] = target: T2, Ephrin type-A receptor 8 (Homo sapiens) (UniProt P29322); assay: Selectivity interaction (KinomeScan (DiscoverX)) EUB0000607a EPHA8; details: at 10 µM
T2 sequence (whole entry): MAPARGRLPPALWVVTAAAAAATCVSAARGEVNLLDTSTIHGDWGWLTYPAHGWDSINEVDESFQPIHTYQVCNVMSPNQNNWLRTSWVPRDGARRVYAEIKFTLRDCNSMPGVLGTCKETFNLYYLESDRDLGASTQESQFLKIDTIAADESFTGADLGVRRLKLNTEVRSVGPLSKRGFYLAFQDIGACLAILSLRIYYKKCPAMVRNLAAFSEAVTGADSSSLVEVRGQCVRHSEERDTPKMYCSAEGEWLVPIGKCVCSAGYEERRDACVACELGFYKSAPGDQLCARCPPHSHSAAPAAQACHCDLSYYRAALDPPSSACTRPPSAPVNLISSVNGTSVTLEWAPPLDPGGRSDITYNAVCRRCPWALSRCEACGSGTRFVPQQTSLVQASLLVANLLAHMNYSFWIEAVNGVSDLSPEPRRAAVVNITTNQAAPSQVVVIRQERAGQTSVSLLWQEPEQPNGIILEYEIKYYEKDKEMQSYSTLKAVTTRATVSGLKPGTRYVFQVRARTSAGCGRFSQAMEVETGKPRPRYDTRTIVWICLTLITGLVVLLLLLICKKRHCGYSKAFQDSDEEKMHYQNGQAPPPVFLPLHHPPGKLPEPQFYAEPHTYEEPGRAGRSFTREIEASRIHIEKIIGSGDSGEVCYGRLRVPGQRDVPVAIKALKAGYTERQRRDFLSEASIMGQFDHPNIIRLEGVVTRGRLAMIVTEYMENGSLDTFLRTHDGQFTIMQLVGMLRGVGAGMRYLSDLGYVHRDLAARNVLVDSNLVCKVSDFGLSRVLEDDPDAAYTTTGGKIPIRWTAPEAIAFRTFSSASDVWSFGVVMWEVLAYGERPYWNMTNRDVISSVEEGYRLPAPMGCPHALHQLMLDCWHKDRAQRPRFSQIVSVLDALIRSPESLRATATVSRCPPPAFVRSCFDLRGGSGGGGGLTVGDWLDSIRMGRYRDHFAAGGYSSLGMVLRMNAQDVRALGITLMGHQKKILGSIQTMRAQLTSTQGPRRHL

[5] = target: Angiopoietin-1 receptor (Homo sapiens) (UniProt Q02763); assay: Selectivity interaction (ProQinase) EUB0000171b TEK; details: at 5 µM
Angiopoietin-1 receptor (Homo sapiens), sequence (Q02763 whole entry): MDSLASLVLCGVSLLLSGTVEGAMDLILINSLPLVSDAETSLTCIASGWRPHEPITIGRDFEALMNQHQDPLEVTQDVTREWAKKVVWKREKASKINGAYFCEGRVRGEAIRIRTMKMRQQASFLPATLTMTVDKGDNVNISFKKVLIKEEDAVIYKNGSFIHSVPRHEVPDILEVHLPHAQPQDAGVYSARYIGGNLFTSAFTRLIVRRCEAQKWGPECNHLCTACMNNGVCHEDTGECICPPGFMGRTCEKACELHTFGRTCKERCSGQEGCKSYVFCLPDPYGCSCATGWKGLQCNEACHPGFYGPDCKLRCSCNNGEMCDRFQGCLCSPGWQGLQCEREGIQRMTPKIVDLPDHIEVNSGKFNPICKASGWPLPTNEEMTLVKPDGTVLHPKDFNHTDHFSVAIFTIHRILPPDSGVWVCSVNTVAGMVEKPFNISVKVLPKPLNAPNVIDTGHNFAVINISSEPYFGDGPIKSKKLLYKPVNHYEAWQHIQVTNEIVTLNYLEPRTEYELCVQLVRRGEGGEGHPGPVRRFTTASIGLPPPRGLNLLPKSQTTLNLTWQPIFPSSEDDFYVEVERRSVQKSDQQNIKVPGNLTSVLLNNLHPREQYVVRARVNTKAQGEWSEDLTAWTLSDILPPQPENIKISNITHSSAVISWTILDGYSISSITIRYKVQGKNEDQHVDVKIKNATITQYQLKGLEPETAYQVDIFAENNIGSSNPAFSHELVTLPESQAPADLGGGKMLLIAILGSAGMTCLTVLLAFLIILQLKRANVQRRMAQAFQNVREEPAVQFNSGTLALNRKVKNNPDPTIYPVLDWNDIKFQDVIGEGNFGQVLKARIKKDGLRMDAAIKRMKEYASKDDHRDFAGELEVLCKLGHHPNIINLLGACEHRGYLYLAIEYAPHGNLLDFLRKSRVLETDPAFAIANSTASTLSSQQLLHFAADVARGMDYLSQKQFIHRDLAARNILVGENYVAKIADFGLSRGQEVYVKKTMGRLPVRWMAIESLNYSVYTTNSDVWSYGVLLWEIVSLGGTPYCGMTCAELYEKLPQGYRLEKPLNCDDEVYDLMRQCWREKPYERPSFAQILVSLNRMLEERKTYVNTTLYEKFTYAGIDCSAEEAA

SRSF protein kinase 1, sequence (Q96SB4 whole entry): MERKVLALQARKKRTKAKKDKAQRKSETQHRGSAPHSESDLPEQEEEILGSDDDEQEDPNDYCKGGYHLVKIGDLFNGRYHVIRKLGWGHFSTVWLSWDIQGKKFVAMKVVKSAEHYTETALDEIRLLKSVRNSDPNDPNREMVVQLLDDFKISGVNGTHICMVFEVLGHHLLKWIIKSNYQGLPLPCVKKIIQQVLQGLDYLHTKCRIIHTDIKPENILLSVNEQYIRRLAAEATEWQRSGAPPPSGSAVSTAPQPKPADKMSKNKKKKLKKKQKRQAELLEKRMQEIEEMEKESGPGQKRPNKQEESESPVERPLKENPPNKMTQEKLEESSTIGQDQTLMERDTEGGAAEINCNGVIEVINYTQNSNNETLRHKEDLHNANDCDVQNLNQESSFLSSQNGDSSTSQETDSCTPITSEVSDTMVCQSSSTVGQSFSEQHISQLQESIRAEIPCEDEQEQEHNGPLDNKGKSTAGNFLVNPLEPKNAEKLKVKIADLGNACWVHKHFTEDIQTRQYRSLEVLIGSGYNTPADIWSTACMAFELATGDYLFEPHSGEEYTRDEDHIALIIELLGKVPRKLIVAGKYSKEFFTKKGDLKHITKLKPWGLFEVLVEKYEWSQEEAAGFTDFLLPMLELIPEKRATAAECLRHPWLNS
Serine/threonine-protein kinase PAK 2 (Homo sapiens), sequence (Q13177 whole entry): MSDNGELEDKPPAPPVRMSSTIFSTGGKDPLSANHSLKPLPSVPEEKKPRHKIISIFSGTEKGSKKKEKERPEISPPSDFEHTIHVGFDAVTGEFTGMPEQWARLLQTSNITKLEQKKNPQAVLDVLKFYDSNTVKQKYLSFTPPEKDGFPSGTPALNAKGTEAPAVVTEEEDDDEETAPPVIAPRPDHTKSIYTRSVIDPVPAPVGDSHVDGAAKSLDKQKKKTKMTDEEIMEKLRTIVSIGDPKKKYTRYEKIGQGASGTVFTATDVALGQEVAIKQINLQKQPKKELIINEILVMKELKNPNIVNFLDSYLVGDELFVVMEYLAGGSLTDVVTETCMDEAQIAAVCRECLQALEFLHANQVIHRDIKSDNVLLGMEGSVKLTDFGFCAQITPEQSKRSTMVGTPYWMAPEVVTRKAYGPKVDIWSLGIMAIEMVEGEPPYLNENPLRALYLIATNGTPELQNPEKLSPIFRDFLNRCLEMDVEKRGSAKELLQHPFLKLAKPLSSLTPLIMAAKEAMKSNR

SMILES: COc1cc(N(C)c2ccnc3ccc(C(F)(F)F)cc23)cc(OC)c1OC
- % binding [1]: 65%

SMILES: C=CC(=O)Nc1ccc(C(=O)Nc2[nH]nc3c2CN(C(=O)N[C@H](CN(C)C)c2ccccc2)C3(C)C)cc1
- % of engagement [2]: 10.9%

SMILES: CC[C@@H]1[C@H](F)C(=O)N[C@@H]1COc1nccc2cc(C(N)=O)c(OC)cc12 [ZIMLOVISERTIB]
- % of inhibition (SRSF protein kinase 1): -7.7%

SMILES: COCC(=O)NC/C=C/c1ccc2ncnc(Nc3ccc(Oc4ccc(C)nc4)c(C)c3)c2c1 [CP-724714]
- % of control [3]: 47%

SMILES: CNC(=O)Nc1ccc(-c2nc(N3CC4CCC(C3)O4)c3cnn(C4CCC5(CC4)OCCO5)c3n2)cc1
- % of control [4]: 81%

SMILES: C=CC(=O)Nc1cccc(C(=O)Nc2ccc(Nc3cc(-c4[nH]c(SC)nc4C)ccn3)cc2)c1
- % of control [5]: 96%
